Experimental findings from ChEMBL document CHEMBL3779783, “Short cationic lipopeptides as effective antibacterial agents: Design, physicochemical properties and biological evaluation” (Bioorg Med Chem, 2016) are described below.

SMILES strings stand for the structures. Values after ≈ are worked out from the molar mass of the structure shown. Active and inactive are the calls of the source. No cut-off for these calls is given here. Non-standard residues stand in square brackets, D forms with d. Residues, ends and D or L forms follow the SMILES beside them. ξ: configuration not given here. ξGly(decyl) = CCCCCCCCCCC(N)C(=O)O Where only a bound is given, the exact number is not on record here.

Data set [1] deals with Staphylococcus aureus. In words: Antimicrobial activity against methicillin-resistant Staphylococcus aureus ATCC 43300 after 24 hrs by M7-A7 method. It is filed as functional. The note with it: ATCC 43300, 24 h.
In data set [2] the test system is Staphylococcus aureus. In words: Antimicrobial activity against clinical isolates of multi-resistant/methicillin-resistant Staphylococcus aureus after 24 hrs by M7-A7 method. It is filed as functional.
Data set [3] deals with Staphylococcus aureus. The data set can be described thus: Antimicrobial activity against glycopeptide-intermediate Staphylococcus aureus NRS17 after 24 hrs by M7-A7 method. It is filed as functional. The following applies: NRS17, 24 h.
Data set [4] concerns Staphylococcus aureus. In words: Antimicrobial activity against glycopeptide-intermediate Staphylococcus aureus NRS1 after 24 hrs by M7-A7 method. The note with it: NRS1, 24 h. It counts as functional.
For data set [5], the system named is Staphylococcus aureus. In words: Antimicrobial activity against clinical isolates of methicillin-resistant Staphylococcus aureus after 24 hrs by M7-A7 method. It counts as functional.
The subject of data set [6] is Staphylococcus aureus. In words: Antimicrobial activity against vancomycin-resistant Staphylococcus aureus NARSA VRS4 after 24 hrs by M7-A7 method. It is filed as functional. The following applies: NARSA VRS4, 24 h.
For data set [7], the system named is Staphylococcus aureus. The data set can be described thus: Antimicrobial activity against vancomycin-resistant Staphylococcus aureus NARSA VRS1 after 24 hrs by M7-A7 method. It counts as functional. The following applies: NARSA VRS1, 24 h.
Data set [8] deals with Staphylococcus aureus. In words: Antimicrobial activity against vancomycin-resistant Staphylococcus aureus NARSA VRS10 after 24 hrs by M7-A7 method. It counts as functional. The following applies: NARSA VRS10, 24 h.
The subject of the next data set is Streptococcus pneumoniae. The data set can be described thus: Antimicrobial activity against multidrug resistant Streptococcus pneumoniae ATCC 700677 after 24 hrs by M7-A7 method. It is filed as functional. The note with it: ATCC 700677, 24 h.
Another data set relates to Enterococcus faecalis. In words: Antimicrobial activity against clinical isolates of high level vancomycin-resistant Enterococcus faecalis after 24 hrs by M7-A7 method. It is filed as functional.
Another data set concerns Enterococcus faecium. The data set can be described thus: Antimicrobial activity against multidrug resistant and high level vancomycin resistant Enterococcus faecium ATCC 51559 after 24 hrs by M7-A7 method. It is filed as functional. The note with it: ATCC 51559, 24 h.
The next data set relates to Escherichia coli. The data set can be described thus: Antimicrobial activity against Escherichia coli ATCC 25922 after 24 hrs by M7-A7 method. It counts as functional. The following applies: ATCC 25922, 24 h.
Data set [9] concerns Klebsiella pneumoniae. In words: Antimicrobial activity against multidrug resistant Klebsiella pneumoniae ATCC 700603 after 24 hrs by M7-A7 method. It is filed as functional. The following applies: Klebsiella pneumoniae, 700603, 24 h.
The subject of data set [10] is Klebsiella pneumoniae. In words: Antimicrobial activity against Klebsiella pneumoniae ATCC 13883 after 24 hrs by M7-A7 method. It is filed as functional. The following applies: ATCC 13883, 24 h.
The next data set concerns Acinetobacter baumannii. In words: Antimicrobial activity against Acinetobacter baumannii […] after 24 hrs by M7-A7 method. It is filed as functional.
The test system of the next data set is Pseudomonas aeruginosa. In words: Antimicrobial activity against Pseudomonas aeruginosa ATCC 27853 after 24 hrs by M7-A7 method. It counts as functional. The note with it: ATCC 27853, 24 h.
The test system of data set [11] is Klebsiella pneumoniae. In words: Antimicrobial activity against NDM-1 positive Klebsiella pneumoniae BAA-2146 after 24 hrs by M7-A7 method. The following applies: ATCC BAA-2146, 24 h. It is filed as functional.
Data set [12] can be described thus: Metabolic stability in 0.1 M NH4HCO3 buffer at pH 8.16 assessed as trypsin (unknown origin)-mediated compound degradation after 2 to 12 hrs by RP-HPLC method. The note with it: human. It counts as ADME.
For data set [13], the system named is Staphylococcus aureus. In words: Antimicrobial activity against methicillin-susceptible Staphylococcus aureus ATCC 25923 assessed as membrane burst at 16 times MIC after 3 hrs by transmission electron microscopic analysis. It counts as functional, organism-based.

For `CCCCCCCCCCC(NC(=O)C(CCCCCCCCCC)NC(=O)C(CCCCN)NC(=O)C(CCCCN)NC(C)=O)C(=O)NC(CCCCNC(C)=O)C(=O)NCC(N)=O` (centres undefined) (Ac-KK[ξGly(decyl)][ξGly(decyl)]K(Ac)G-NH2; configuration not given here), the MIC is 1.9 µM (≈ 1.78 µg/mL) in the data set on Staphylococcus aureus [1]; 3.8 µM (≈ 3.56 µg/mL) with Staphylococcus aureus [2]; 2.8 µM (≈ 2.62 µg/mL) against Staphylococcus aureus [3]; 1.9 µM (≈ 1.78 µg/mL) against Staphylococcus aureus [4]; 11.3 µM (≈ 10.6 µg/mL) in the data set with Staphylococcus aureus [5]; 2.8 µM (≈ 2.62 µg/mL) in the data set with Staphylococcus aureus [6]. Moreover, the MIC worked out at 1.9 µM (≈ 1.78 µg/mL) in the data set on Staphylococcus aureus [7]; 2.8 µM (≈ 2.62 µg/mL) with Staphylococcus aureus [8]; 3.8 µM (≈ 3.56 µg/mL) against Streptococcus pneumoniae; 1.9 µM (≈ 1.78 µg/mL) in the data set with Enterococcus faecalis; 2.8 µM (≈ 2.62 µg/mL) in the data set with Enterococcus faecium; 15 µM (≈ 14.1 µg/mL) against Escherichia coli. Also, the MIC was > 15 µM against Klebsiella pneumoniae [9]; 15 µM (≈ 14.1 µg/mL) against Klebsiella pneumoniae [10]; 7.5 µM (≈ 7.03 µg/mL) in the data set with Acinetobacter baumannii; 7.5 µM (≈ 7.03 µg/mL) against Pseudomonas aeruginosa; > 15 µM with Klebsiella pneumoniae [11]. In addition, in data set [12], the Stability result is reported as “Stable”. Also, the result with Staphylococcus aureus [13] was Active.

As a reminder, the MIC is the lowest concentration that inhibits growth of the organism.
